# Tested on: not listed separately
# Test: Intrinsic clearance in human liver microsomes at 1 uM in presence of NADPH
# Format: ADME, Microsome
# Settings: read-out: CLH
row,microsomal CLint at 1 µM [µL/min/mg],SMILES
1,71.9,O=C(c1ccncc1)N1N=C2CCCCC[C@@H]2[C@@]1(O)C(F)(F)F (racemic)
2,15.7,O=C(c1cccnc1)N1N=C2CCOC[C@@H]2[C@@]1(O)C(F)(F)F (racemic)

# Tested on: not listed separately
# Test: Permeability of the compound from apical to basolateral side of MDCK cells expressing MDR1 after 120 mins
# Format: ADME, cell-based, Canis lupus familiaris
# Settings: dog, read-out: permeability
row,Papp A→B at 2 h [×10⁻⁶ cm/s],SMILES
1,36.2,O=C(c1ccncc1)N1N=C2CCCCC[C@@H]2[C@@]1(O)C(F)(F)F (racemic)
2,29.2,O=C(c1cccnc1)N1N=C2CCOC[C@@H]2[C@@]1(O)C(F)(F)F (racemic)

# Tested on: HEK293
# Test: Inhibition of full-length huntingtin Q138 mutant (unknown origin) expressed in human T-RexTM-293 cells co-expressing CRE-Luc assessed as decrease of CREB-mediated transcription after 72 hrs by luciferase reporter gene based luminescence assay relative to control
# Format: cell-based
# Settings: not given
row,SMILES,Emax [%]
1,O=C(c1ccc[nH]1)N1N=C2CCCC[C@@H]2[C@@]1(O)C(F)(F)F (racemic),20
2,CCNc1cn(C)nc1C(=O)N1N=C2CCCC[C@@H]2[C@@]1(O)C(F)(F)F (racemic),37
3,Cc1ccc(C(=O)N2N=C3CCCCC[C@@H]3[C@@]2(O)C(F)(F)F)cn1 (racemic),30
4,O=C(c1ccncc1)N1N=C2CCCCC[C@@H]2[C@@]1(O)C(F)(F)F (racemic),34
5,O=C(c1ccc[nH]1)N1N=C2CCCCC[C@@H]2[C@@]1(O)C(F)(F)F (racemic),6
6,O=C(c1cncc(Br)c1)N1N=C2CCOC[C@@H]2[C@@]1(O)C(F)(F)F (racemic),24
7,O=C(c1cccnc1)N1N=C2CCOC[C@@H]2[C@@]1(O)C(F)(F)F (racemic),40
8,CCOC(=O)c1c[nH]nc1S(=O)(=O)N1N=C2CCCC[C@@H]2[C@@]1(O)C(F)(F)F (racemic),34
9,Cc1nn(C)c(Cl)c1S(=O)(=O)N1N=C2CCOC[C@@H]2[C@@]1(O)C(F)(F)F (racemic),-17

# Tested on: MDCK
# Test: Efflux ratio of permeability […] in MDCK cells expressing MDR1 after 120 mins
# Format: ADME, cell-based, Canis lupus familiaris
# Settings: dog, 2 h
row,Ratio,SMILES
1,1,O=C(c1ccncc1)N1N=C2CCCCC[C@@H]2[C@@]1(O)C(F)(F)F (racemic)
2,1.1,O=C(c1cccnc1)N1N=C2CCOC[C@@H]2[C@@]1(O)C(F)(F)F (racemic)

# Tested on: not listed separately
# Test: Inhibition of full-length huntingtin Q138 mutant (unknown origin) expressed in human T-RexTM-293 cells co-expressing CRE-Luc assessed as decrease of CREB-mediated transcription after 72 hrs by luciferase reporter gene based luminescence assay
# Format: cell-based
# Settings: HEK293, 72 h
row,EC50 [µM],SMILES
1,28.7,O=C(c1ccc[nH]1)N1N=C2CCCC[C@@H]2[C@@]1(O)C(F)(F)F (racemic)
2,19.9,CCNc1cn(C)nc1C(=O)N1N=C2CCCC[C@@H]2[C@@]1(O)C(F)(F)F (racemic)
3,10,Cc1ccc(C(=O)N2N=C3CCCCC[C@@H]3[C@@]2(O)C(F)(F)F)cn1 (racemic)
4,10.8,O=C(c1ccncc1)N1N=C2CCCCC[C@@H]2[C@@]1(O)C(F)(F)F (racemic)
5,14.2,O=C(c1ccc[nH]1)N1N=C2CCCCC[C@@H]2[C@@]1(O)C(F)(F)F (racemic)
6,22.4,O=C(c1cncc(Br)c1)N1N=C2CCOC[C@@H]2[C@@]1(O)C(F)(F)F (racemic)
7,6.1,O=C(c1cccnc1)N1N=C2CCOC[C@@H]2[C@@]1(O)C(F)(F)F (racemic)
8,1.8,CCOC(=O)c1c[nH]nc1S(=O)(=O)N1N=C2CCCC[C@@H]2[C@@]1(O)C(F)(F)F (racemic)
9,30,Cc1nn(C)c(Cl)c1S(=O)(=O)N1N=C2CCOC[C@@H]2[C@@]1(O)C(F)(F)F (racemic)

# Tested on: not listed separately
# Test: Intrinsic clearance in mouse liver microsomes at 1 uM in presence of NADPH
# Format: ADME, Microsome
# Settings: read-out: CLH
row,microsomal CLint at 1 µM [µL/min/mg],SMILES
1,170,O=C(c1ccncc1)N1N=C2CCCCC[C@@H]2[C@@]1(O)C(F)(F)F (racemic)
2,16.6,O=C(c1cccnc1)N1N=C2CCOC[C@@H]2[C@@]1(O)C(F)(F)F (racemic)

# Tested on: not listed separately
# Test: Stability of the compound at pH 3 to 7.4 assessed as dehydration
# Format: physicochemical
# Settings: buffer
row,Stability,SMILES
1,Stable,O=C(c1ccc[nH]1)N1N=C2CCCC[C@@H]2[C@@]1(O)C(F)(F)F (racemic)
2,Stable,CCNc1cn(C)nc1C(=O)N1N=C2CCCC[C@@H]2[C@@]1(O)C(F)(F)F (racemic)
3,Stable,Cc1ccc(C(=O)N2N=C3CCCCC[C@@H]3[C@@]2(O)C(F)(F)F)cn1 (racemic)
4,Stable,O=C(c1ccncc1)N1N=C2CCCCC[C@@H]2[C@@]1(O)C(F)(F)F (racemic)
5,Stable,O=C(c1ccc[nH]1)N1N=C2CCCCC[C@@H]2[C@@]1(O)C(F)(F)F (racemic)
6,Stable,O=C(c1cncc(Br)c1)N1N=C2CCOC[C@@H]2[C@@]1(O)C(F)(F)F (racemic)
7,Stable,O=C(c1cccnc1)N1N=C2CCOC[C@@H]2[C@@]1(O)C(F)(F)F (racemic)
8,Stable,CCOC(=O)c1c[nH]nc1S(=O)(=O)N1N=C2CCCC[C@@H]2[C@@]1(O)C(F)(F)F (racemic)
9,Stable,Cc1nn(C)c(Cl)c1S(=O)(=O)N1N=C2CCOC[C@@H]2[C@@]1(O)C(F)(F)F (racemic)

# Tested on: not listed separately
# Test: Kinetic solubility of the compound at pH 7.4
# Format: physicochemical
# Settings: buffer, read-out: Kinetic_solubility
row,solubility kinetic [µM],SMILES
1,72,O=C(c1ccc[nH]1)N1N=C2CCCC[C@@H]2[C@@]1(O)C(F)(F)F (racemic)
2,182,CCNc1cn(C)nc1C(=O)N1N=C2CCCC[C@@H]2[C@@]1(O)C(F)(F)F (racemic)
3,56,Cc1ccc(C(=O)N2N=C3CCCCC[C@@H]3[C@@]2(O)C(F)(F)F)cn1 (racemic)
4,96,O=C(c1ccncc1)N1N=C2CCCCC[C@@H]2[C@@]1(O)C(F)(F)F (racemic)
5,30,O=C(c1ccc[nH]1)N1N=C2CCCCC[C@@H]2[C@@]1(O)C(F)(F)F (racemic)
6,111,O=C(c1cncc(Br)c1)N1N=C2CCOC[C@@H]2[C@@]1(O)C(F)(F)F (racemic)
7,187,O=C(c1cccnc1)N1N=C2CCOC[C@@H]2[C@@]1(O)C(F)(F)F (racemic)
8,111,CCOC(=O)c1c[nH]nc1S(=O)(=O)N1N=C2CCCC[C@@H]2[C@@]1(O)C(F)(F)F (racemic)
